Where two headings read alike, the source gives them in different places.
Target: BRD3 (Homo sapiens, UniProt Q15059)
Assay: Western blot of BRD3 levels after cellular dosing
Settings: for remaining activity at 2.19382 µM: Log SJ46420 (uM) 2.19382; for remaining activity at 2.19382 µM / remaining activity at 2.49485 µM / remaining activity at 2.79588 µM / remaining activity at 3.09691 µM / remaining activity at 3.39794 µM: Rep1, Rep2; for remaining activity at 2.49485 µM: Log SJ46420 (uM) 2.49485; for remaining activity at 2.79588 µM: Log SJ46420 (uM) 2.79588; for remaining activity at 3.09691 µM: Log SJ46420 (uM) 3.09691; for remaining activity at 3.39794 µM: Log SJ46420 (uM) 3.39794
[1] = 22Rv1, read-out: BRD3 (DMSO = 100), 22Rv1 cells
[2] = PC-3, read-out: BRD3 (DMSO = 100), PC3 cells

Sequence of BRD3 (Q15059 whole entry): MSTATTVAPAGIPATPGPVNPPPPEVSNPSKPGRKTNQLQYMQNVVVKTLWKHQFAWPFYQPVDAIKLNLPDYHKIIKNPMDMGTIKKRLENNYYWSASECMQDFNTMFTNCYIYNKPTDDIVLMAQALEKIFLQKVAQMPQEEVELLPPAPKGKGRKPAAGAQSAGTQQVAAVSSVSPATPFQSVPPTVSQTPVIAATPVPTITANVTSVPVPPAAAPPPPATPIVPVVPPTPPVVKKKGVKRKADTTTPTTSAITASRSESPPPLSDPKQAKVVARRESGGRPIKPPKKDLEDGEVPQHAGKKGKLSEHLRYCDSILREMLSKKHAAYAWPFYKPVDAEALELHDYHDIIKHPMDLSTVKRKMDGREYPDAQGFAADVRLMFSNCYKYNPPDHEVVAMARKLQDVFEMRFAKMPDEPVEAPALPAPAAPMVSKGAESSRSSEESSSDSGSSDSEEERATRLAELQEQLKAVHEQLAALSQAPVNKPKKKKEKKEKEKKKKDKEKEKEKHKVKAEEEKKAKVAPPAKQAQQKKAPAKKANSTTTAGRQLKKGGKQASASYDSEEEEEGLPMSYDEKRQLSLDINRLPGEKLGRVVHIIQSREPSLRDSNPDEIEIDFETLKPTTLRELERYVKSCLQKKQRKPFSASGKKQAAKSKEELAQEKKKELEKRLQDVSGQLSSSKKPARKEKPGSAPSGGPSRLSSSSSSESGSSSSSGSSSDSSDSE

COC(=O)CNC(=O)Cc1csc(-c2ccc3cccc(OCCN4CCN(C(=O)C[C@@H]5N=C(c6ccc(Cl)cc6)c6c(sc(C)c6C)-n6c(C)nnc65)CC4)c3c2)n1 [SJ46420]
selectivity for BRD3 over BRD4 (DC50) (22Rv1): ~ 44 fold
remaining activity at 0.16 µM (22Rv1, 24 h, read-out: BRD3 level relative to DMSO (100%), 22Rv1, 0.16µM, 24 h, Fig S6f): 74 ± 4.4%
remaining activity at 0.31 µM (22Rv1, 24 h, read-out: BRD3 level relative to DMSO (100%), 22Rv1, 0.31µM, 24 h, Fig S6f): 54 ± 11%
remaining activity at 0.63 µM (22Rv1, 24 h, read-out: BRD3 level relative to DMSO (100%), 22Rv1, 0.63µM, 24 h, Fig S6f): 45 ± 4.6%
remaining activity at 1.3 µM (22Rv1, 24 h, read-out: BRD3 level relative to DMSO (100%), 22Rv1, 1.3µM, 24 h, Fig S6f): 27 ± 2.2%
remaining activity at 2.5 µM (22Rv1, 24 h, read-out: BRD3 level relative to DMSO (100%), 22Rv1, 2.5µM, 24 h, Fig S6f): 21 ± 3.7%
remaining activity at 5 µM (22Rv1, 24 h, read-out: BRD3 level relative to DMSO (100%), 22Rv1, 5µM, 24 h, Fig S6f): 4.3 ± 3.5%
remaining activity at 10 µM (22Rv1, 24 h, read-out: BRD3 level relative to DMSO (100%), 22Rv1, 10µM, 24 h, Fig S6f): 2.9 ± 2.8%
remaining activity at 2.19382 µM [1]: 71.3%
remaining activity at 2.49485 µM [1]: 46.9%
remaining activity at 2.79588 µM [1]: 42.3%
remaining activity at 3.09691 µM [1]: 29.2%
remaining activity at 3.39794 µM [1]: 23.9%
Dmax (22Rv1, read-out: BRD3 Dmax, 22Rv1, 24 h dose): 93.7%
remaining activity at 0.156 µM (22Rv1, read-out: BRD3 level, Western blot quantification (DMSO = 100), Fig S6f, 22RV1 KO/rescue Dose Response, 0.156 uM): 71.3%
remaining activity at 0.313 µM (22Rv1, read-out: BRD3 level, Western blot quantification (DMSO = 100), Fig S6f, 22RV1 KO/rescue Dose Response, 0.313 uM): 46.9%
remaining activity at 0.625 µM (22Rv1, read-out: BRD3 level, Western blot quantification (DMSO = 100), Fig S6f, 22RV1 KO/rescue Dose Response, 0.625 uM): 42.3%
remaining activity at 1.25 µM (22Rv1, read-out: BRD3 level, Western blot quantification (DMSO = 100), Fig S6f, 22RV1 KO/rescue Dose Response, 1.25 uM): 29.2%
remaining activity at 2.5 µM (22Rv1, read-out: BRD3 level, Western blot quantification (DMSO = 100), Fig S6f, 22RV1 KO/rescue Dose Response, 2.5 uM): 23.9%
remaining activity at 0.16 µM (24 h, read-out: BRD3 level relative to DMSO (100%), PC3, 0.16µM, 24 h, Fig S6e): 107 ± 8.6%
remaining activity at 0.31 µM (24 h, read-out: BRD3 level relative to DMSO (100%), PC3, 0.31µM, 24 h, Fig S6e): 72 ± 3.2%
remaining activity at 0.63 µM (24 h, read-out: BRD3 level relative to DMSO (100%), PC3, 0.63µM, 24 h, Fig S6e): 32 ± 5%
remaining activity at 1.3 µM (24 h, read-out: BRD3 level relative to DMSO (100%), PC3, 1.3µM, 24 h, Fig S6e): 13 ± 2.8%
remaining activity at 2.5 µM (24 h, read-out: BRD3 level relative to DMSO (100%), PC3, 2.5µM, 24 h, Fig S6e): 7.3 ± 2.7%
remaining activity at 5 µM (24 h, read-out: BRD3 level relative to DMSO (100%), PC3, 5µM, 24 h, Fig S6e): 4.8 ± 2.4%
remaining activity at 10 µM (24 h, read-out: BRD3 level relative to DMSO (100%), PC3, 10µM, 24 h, Fig S6e): 1.8 ± 2.1%
BRD3 levels in U2OS cell line with KLHDC2 knocked out (24 h dose, Fig 6b): unaffected
remaining activity at 0.2 µM (AU565, 8 h, read-out: BRD3 level relative to DMSO (100%), AU565, 0.2µM, 8 h, Fig S6c): 56 ± 3.4%
remaining activity at 1 µM (AU565, 8 h, read-out: BRD3 level relative to DMSO (100%), AU565, 1µM, 8 h, Fig S6c): 29 ± 2.4%
remaining activity at 5 µM (AU565, 8 h, read-out: BRD3 level relative to DMSO (100%), AU565, 5µM, 8 h, Fig S6c): 3.9 ± 1.1%
remaining activity at 0.2 µM (AU565, read-out: BRD3 level, Western blot quantification (DMSO = 100), Fig S6c, AU565 Cells, 0.2 uM): 58.8%
remaining activity at 1 µM (AU565, read-out: BRD3 level, Western blot quantification (DMSO = 100), Fig S6c, AU565 Cells, 1 uM): 30.4%
remaining activity at 5 µM (AU565, read-out: BRD3 level, Western blot quantification (DMSO = 100), Fig S6c, AU565 Cells, 5 uM): 4.75%
remaining activity at 2.5 µM (HEK-293T, 24 h, read-out: BRD3 level relative to DMSO (100%), 293T, 2.5µM, 24 h, Fig S6a): 44 ± 2.3%
remaining activity at 5 µM (HEK-293T, 24 h, read-out: BRD3 level relative to DMSO (100%), 293T, 5µM, 24 h, Fig S6a): 18 ± 3.7%
remaining activity at 2.5 µM (HEK-293T, read-out: BRD3 level, Western blot quantification (DMSO = 100), Fig S6a, 293T cells, 2.5 uM): 46%
remaining activity at 5 µM (HEK-293T, read-out: BRD3 level, Western blot quantification (DMSO = 100), Fig S6a, 293T cells, 5 uM): 20.9%
remaining activity at 2.5 µM (MDA-MB-468, 24 h, read-out: BRD3 level relative to DMSO (100%), MDA-MB-468, 2.5µM, 24 h, Fig S6b): 41 ± 3.3%
remaining activity at 5 µM (MDA-MB-468, 24 h, read-out: BRD3 level relative to DMSO (100%), MDA-MB-468, 5µM, 24 h, Fig S6b): 20 ± 2.9%
remaining activity at 10 µM (MDA-MB-468, 24 h, read-out: BRD3 level relative to DMSO (100%), MDA-MB-468, 10µM, 24 h, Fig S6b): 15 ± 2.2%
remaining activity at 2 µM (MDA-MB-468, read-out: BRD3 level, Western blot quantification (DMSO = 100), Fig S6b, MDA-MB468 Cells, 2 uM): 39.3%
remaining activity at 5 µM (MDA-MB-468, read-out: BRD3 level, Western blot quantification (DMSO = 100), Fig S6b, MDA-MB468 Cells, 5 uM): 17.8%
remaining activity at 10 µM (MDA-MB-468, read-out: BRD3 level, Western blot quantification (DMSO = 100), Fig S6b, MDA-MB468 Cells, 10 uM): 13.8%
selectivity for BRD3 over BRD4 (DC50) (PC3): ~ 28 fold
remaining activity at 2.19382 µM [2]: 108%
remaining activity at 2.49485 µM [2]: 70.7%
remaining activity at 2.79588 µM [2]: 29.3%
remaining activity at 3.09691 µM [2]: 11.3%
remaining activity at 3.39794 µM [2]: 5.44%
remaining activity at 1 µM (SK-BR-3, 2 h, read-out: BRD3 level relative to DMSO (100%), SKBR3, 1µM, 2hr, Fig S6g): 49 ± 6.7%
remaining activity at 5 µM (SK-BR-3, 2 h, read-out: BRD3 level relative to DMSO (100%), SKBR3, 5µM, 2hr, Fig S6g): 35 ± 5.2%
remaining activity at 1 µM (SK-BR-3, 2 h, read-out: BRD3 level, Western blot quantification (DMSO = 100), Fig S6g, SKBR3 Time course, 1 uM, 2hr): 54.5%
remaining activity at 5 µM (SK-BR-3, 2 h, read-out: BRD3 level, Western blot quantification (DMSO = 100), Fig S6g, SKBR3 Time course, 5 uM, 2hr): 39.4%
remaining activity at 1 µM (SK-BR-3, 4 h, read-out: BRD3 level relative to DMSO (100%), SKBR3, 1µM, 4hr, Fig S6g): 36 ± 6.9%
